This is an account of results in patent publication US8096982B2, “Method and apparatus to enhance optical transparency of biological tissues” (priority 1998, dated 2012).

Data set [1] in a line: Optical transmission characteristics of the agent in a cuvette (UV-Vis-NIR spectrophotometer). Format: physicochemical. The method, then:
Diatrizoate meglumine acid, which is commercially known as Hypaque®, is a radiographic injection solution. […] In an experiment, a cuvette was filled with diatrizoate meglumine acid and its optical transmission characteristics were evaluated using a Varian CARY 5E™ UV-Vis-NIR spectrophotometer.

A further data set concerns porcine sclera. The data set can be described thus: Diffuse transmission through excised porcine sclera before and after submersion in clarifying agent. The note with it: maximum increase, at 750 nm, range 350-750 nm. As for the experimental part: Porcine eyes were enucleated immediately post-mortem, and were transported to the laboratory in a wet gauze pad, held at 4° C. during transport in a well-insulated cooler. Each eye was inflated with saline. Limbal conjunctiva and Tenons capsule were dissected and excised using a pair of blunt Wescott scissors. A No. 64 Beaver blade was then used to outline 20 mm×20 mm sections of the sclera from the limbus to the equator of the globe. Incisions were deepened to the supra-choroidal space. Sections of sclera were then lifted off the intact choroid and ciliary body. Scleral thickness was measured and was determined to be 1.65 mm on average.
Three prepared sections of sclera were each then placed between quartz slides, and then between two flat aluminum plates. The tissue sample assembly was then fixed against the input port of a diffuse reflectance accessory (integrating sphere) of a Varian Cary 5E™ UV-Vis-NIR spectrophotometer, and diffuse transmission was measured for wavelengths ranging from 350 nm to 750 nm. The three tissue samples were then submerged in separate containers of glycerol, the first being submerged for 5 minutes, the second for 10 minutes, and the third for 15 minutes. Each sample was then again placed in the tissue assembly and was fixed against the input port of the diffuse reflectance accessory of the spectrophotometer, and the diffuse transmission was measured again over the same wavelength range as above. These measurements were also carried out, using three other scleral samples, and diatrizoate meglumine acid as the IRIM agent.

The next data set concerns sclera. Format: in vivo, rabbit. The note with it: for signs of inflammation on follow up examination: rabbit, in vivo; for time for sclera to turn clear: topical drops on exposed sclera, conjunctiva surgically separated. As for the experimental part:
In order to assess the longitudinal effects of topical administration of glycerol or diatrizoate meglumine acid on the sclera, in-vivo experiments were carried out on two rabbits, and the eyes were examined for signs of inflammation once a day for approximately 1 week.
Each rabbit was put under anesthesia using an intra-muscular injection of Rompin® and Ketamine®. The conjunctiva serves as the permeability barrier for the sclera, and therefore, the conjunctiva was surgically separated from the sclera and the distal surface of the sclera was exposed. Topical drops of glycerol were administered on one eye, and of diatrizoate meglumine acid in the contra-lateral eye, for both rabbits. In the case of glycerol, the sclera turned clear, almost instantaneously (in less than 5 seconds), whereas in the case of diatrizoate meglumine acid, the sclera turned clear in approximately 1 minute. The conjunctiva was stretched over the sclera, again, and stay sutures were used to re-attach the conjunctiva to the limbal region. Ocumycing was administered topically to both eyes which had undergone surgery, to prevent infection. After approximately 5-10 minutes, the sclera in both eyes became opaque, again.

Another data set has as its system human skin. Conditions: approximately 8 minutes after topical administration; stratum corneum tape-stripped; 480-800 nm.
Another data set relates to edematous corneas. Conditions: glycerol applied topically in concentrations from 50% to 100%; cited from earlier work.

Protocol for human skin: Two skin surfaces on the forearm were shaved and cleaned prior to measurements. A tape-strip method was used to remove the stratum corneum. […] The topical drugs administered formed an approximate circle of 1 cm in diameter. The drugs were left to diffuse into the tissue for approximately 8 minutes.
Surface reflectance measurements were made immediately after tape stripping of the skin (prior to topical administration of the drugs), and subsequently, approximately 8 minutes after topical administration of the drugs. A CSI Portable Diffuse Reflectance Spectrometer, developed by Canfield Scientific Instruments, Inc. (Fairfield, N.J.), was used for these surface measurements. […] One leg of the bifurcated fiber optic bundle is coupled to the lamp and the other leg is coupled to the spectrometer. The joined end of the fiber bundle (approximately 3 mm in diameter) was placed in contact with the skin surface from which measurements were made. The measurements were made across a 330 nm to 840 nm spectral range, with a 0.5 nm resolution. The integration time for the measurements was set at 50 kHz.
The tape stripping of the skin causes a mild irritation of the skin, leading to a transient erythema.

Consider `CC(=O)Nc1c(I)c(NC(C)=O)c(I)c(C(=O)O)c1I.CNC[C@H](O)[C@@H](O)[C@H](O)[C@H](O)CO` [diatrizoate meglumine acid], for which the optical transmission entry in data set [1] (wavelengths above 400 nm) is “very high transmission”; in data set [1] (wavelengths below approximately 400 nm), “very low transmission”. In addition, the “increase in diffuse transmission through the sclera” value in the data set with porcine sclera (submerged 5 minutes) is on record as “up to 200%”; in the data set with porcine sclera (submerged 10 minutes), at most 395%; with porcine sclera (submerged 15 minutes), at most 975%. Also, the “signs of inflammation on follow up examination” value in the data set with sclera was “no signs of inflammation”. In the data set on sclera, the “time for sclera to turn clear” value is reported as “approximately 1 minute”.

Regarding `OCC(O)CO` [glycerol], the “increase in absorbance of tissue, in-vivo” value in the data set with human skin is recorded as “up to 60.5%”. Also, the entries for the “increase in diffuse transmission through the sclera” value with porcine sclera (submerged 5 minutes), with porcine sclera (submerged 10 minutes) and in the data set on porcine sclera (submerged 15 minutes) were “up to 240%”, at most 660% and at most 1090%, respectively. Moreover, the “clearing of edematous corneas following topical administration” value in the data set on edematous corneas is on record as “effective in clearing edematous corneas, within two minutes”. In addition, in the data set with sclera, the “signs of inflammation on follow up examination” value is “no signs of inflammation”. In addition, the “time for sclera to turn clear” value with sclera is recorded as “less than 5 seconds”.
